Columns and labels:
NZB/W F1 female mice [1] = assay: IgG and C3 depositions in glomerulus (fluorescence immunostaining); type: in vivo, mouse
Protocol: (§1) 80 NZB/W F1 female mice (four weeks old) were purchased from Jackson Laboratory and maintained in an SPF breeding room with five mice per cage. Their weight and urine protein were measured at 24 weeks after birth (right before administration), and then all the animals except those having too much urine protein were divided into groups as shown in a table 2 below such that the urine protein and weight might be evenly distributed among the groups.
(§2) Then, the mice were administered as described in the table 2 once a day for about 19 weeks from 24 weeks after birth to 42 weeks after birth.
To identify a therapeutic effect of the inventive pharmaceutical composition on kidney in the SLE disease model, a degree of IgG and C3 depositions in glomerulus was measured.
With regard to a remaining half of the left kidney collected during the autopsy performed in Example 9, a frozen tissue block was prepared for a frozen section by means of an OCT compound, and then IgG and C3 fluorescence immunostaining was performed by means of a method known in the technical field to which the present invention pertains.
Specifically, the frozen tissue was sectioned in a thickness of 4 μm, then fixed in cold acetone for five minutes, and then washed in phosphate buffered saline (PBS) twice for five minutes. To get rid of a non-specific reaction, a resulting tissue was blocked by means of the PBS solution with the addition of 1% bovine serum albumin and 0.05% tween-20 for 30 minutes, and then reacted at room temperature for one hour by means of FITC-conjugated goat anti-mouse IgG antibodies (1:200, AP308F, Merck Millipore) or FITC-conjugated goat anti-mouse C3 antibodies (1:100, Cappel 55500, MP Bio). After that, the resulting tissue was washed with the PBS for five minutes three times, then covered with a cover glass by means of a mounting medium including DAPI, and then observed by means of a confocal laser scanning microscopy (LSM 700, ZEISS).

NZB/W F1 female mice [2] = assay: BUN and serum creatinine in SLE model mouse; type: in vivo
Protocol: as §1, §2
The fresh urine of mice was collected before and after administration every two weeks, while blood collection was performed before and after administration every four weeks. The serum was prepared by centrifugation of the collected blood and then kept at −70° C.
To evaluate a kidney function of the SLE model mouse, BUN and creatine concentrations were measured from a mouse serum collected every month (at 24, 28, 32, 36 and 40 weeks old and during autopsy) by means of a Dri-CHEM 3000 colorimetric analyzer (Fuji film).

[3] = experimental groups vs control groups
[4] = experimental groups, 40 weeks old

`O=C(NO)c1ccc(CN(C(=O)N2CCOCC2)c2cccc(C(F)(F)F)c2)cc1` [Compound 374, N-(4-(hydroxycarbamoyl)benzyl)-N-(3-(trifluoromethyl)phenyl)morpholine-4-carboxamide] was tested, and the “level of C3 depositions in kidney” value (NZB/W F1 female mice [1]; 50 mg/kg dosed group) was “remarkably decreased”, the “level of IgG depositions in kidney” value (NZB/W F1 female mice [1]; 50 mg/kg dosed group) was “remarkably decreased” and the “level of C3 depositions in kidney” value (NZB/W F1 female mice [1]; experimental groups) was “decreased”. For the same compound, the “level of IgG depositions in kidney” value (NZB/W F1 female mice [1]; experimental groups) was “decreased”, the BUN concentration (NZB/W F1 female mice [2]; [3]) was “decreased” and the serum creatine concentration (NZB/W F1 female mice [2]; [3]) was “decreased”. For the same compound, the BUN concentration (NZB/W F1 female mice [2]; [4]) was “remarkably excellent effect of reducing” and the serum creatine concentration (NZB/W F1 female mice [2]; [4]) was “remarkably excellent effect of reducing”.

Source: patent US11571426B2, “Compositions for preventing or treating lupus” (CHONG KUN DANG PHARMACEUTICAL CORP., priority 2017, dated 2023)
